Values of other authors in patent publication US20100135983A1, “Anti-inflammatory compositions and methods” (Searete LLC, a limited liability corporation of the State …, priority 2008, published 2010).
Values belong to the compound of their own block, whether it stands above or below them.

Tests used:
[1] = system: Src family kinase; details: also its dependent cellular responses
[2] = system: lethal septic shock; details: mice
[3] = single agent, infused at 400 mg over one hour
[4] = system: Src family kinases (Src, Lck, Yes, Fyn); details: at nanomolar concentrations
[5] = system: Epha1; details: at nanomolar concentrations
[6] = system: proteasome; details: cultured breast cancer cells; disulfiram bound to copper

inhibition of CpG-induced Src family kinase activation [1]: does not inhibit
Structure (SMILES): CCN(CC)CCCC(C)Nc1ccnc2cc(Cl)ccc12 (stereo not drawn) [Chloroquine]

Structure (SMILES): Cl.Cl.Nc1ccccc1Oc1ccc2c(N)nsc2c1 [Example M62812, 3-amino-6-(2-aminophenoxy)-1,2-benzisothiazole dihydrochloride]
prevention of lethal septic shock [2]: prevents lethal septic shock

Structure (SMILES): CCN(CC)CCCC(C)Nc1ccnc2cc(Cl)ccc12.O=P(O)(O)O.O=P(O)(O)O (stereo not drawn) [chloroquine phosphate, 7-chloro-4-[[4-(diethylamino)-1-methylbutyl]amino]quinoline phosphate (1:2)]
tolerability of intravenous infusion [3]: without complication

Structure (SMILES): Cc1nc(Nc2ncc(C(=O)Nc3c(C)cccc3Cl)s2)cc(N2CCN(CCO)CC2)n1.O [dasatinib, N-(2-chloro-6-methylphenyl)-2-[[6-[4-(2-hydroxyethyl)-1-piperazinyl]-2-methyl-4-pyrimidinyl]amino]-5-thiazolecarboxamide, monohydrate]
inhibition of Src family kinases (Src, Lck, Yes, Fyn) [4]: inhibits | inhibition of Epha1 [5]: inhibits

Structure (SMILES): CCN(CC)C(=S)SSC(=S)N(CC)CC [disulfiram, 1-(diethylthiocarbamoyldisulfanyl)-N,N-diethyl-methanethioamide]
proteasomal activity [6]: inhibits proteasomal activity
